Experiments:
Mus musculus = species: Mus musculus; settings: dose 0.63 mg/kg; route subcutaneous
Description: Reversal of scopolamine-induced memory impairment in mice, after subcutaneous administration of 0.63 mg/kg

Acetylcholinesterase = molecular target: T1, Acetylcholinesterase (Rattus norvegicus, UniProt P37136); experiment: In vitro inhibitory activity against acetylcholinesterase using rat striatal preparations
T1 sequence (P37136 whole entry): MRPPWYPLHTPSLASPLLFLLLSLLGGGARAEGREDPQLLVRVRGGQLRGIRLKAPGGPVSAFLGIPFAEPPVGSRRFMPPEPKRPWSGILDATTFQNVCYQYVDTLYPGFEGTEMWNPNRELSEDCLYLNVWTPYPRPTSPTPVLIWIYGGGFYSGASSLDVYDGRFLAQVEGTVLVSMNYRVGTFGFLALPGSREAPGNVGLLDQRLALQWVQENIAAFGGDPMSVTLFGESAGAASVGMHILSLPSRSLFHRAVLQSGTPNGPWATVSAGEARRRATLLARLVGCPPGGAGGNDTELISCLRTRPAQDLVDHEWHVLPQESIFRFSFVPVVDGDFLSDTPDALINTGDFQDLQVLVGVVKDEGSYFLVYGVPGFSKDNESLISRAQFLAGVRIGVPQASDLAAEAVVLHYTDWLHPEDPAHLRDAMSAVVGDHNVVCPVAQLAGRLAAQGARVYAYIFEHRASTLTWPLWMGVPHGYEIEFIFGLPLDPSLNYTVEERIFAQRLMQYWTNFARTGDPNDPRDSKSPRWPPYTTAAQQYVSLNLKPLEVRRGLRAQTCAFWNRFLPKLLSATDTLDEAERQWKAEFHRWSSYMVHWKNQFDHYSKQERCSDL

[1] = Acute toxicity in mice was determined after oral administration; type: organism-based; settings: mouse, in vivo

## Nc1c2c(nc3ccccc13)CCCC2O.O=C(O)/C=C\C(=O)O (stereo not drawn) [VELNACRINE MALEATE]
Mus musculus
  Reversal: 33%
Acetylcholinesterase
  IC50: 4.8 µM
[1]
  LD50: 136 mg/kg

— ChEMBL document CHEMBL1124141, “(+/-)-9-Amino-1,2,3,4-tetrahydroacridin-1-ol. A potential Alzheimer's disease therapeutic of low toxicity” (J Med Chem, 1988)
